# “Also recorded” adds a separate entry of the source. Like-named read-outs stand apart in the source and are kept apart here. Marks after values point to notes of the source that are not given here.
# Assays:
# [1] = test system: Streptococcus pyogenes (ATCC 19615)
# [2] = test system: human red blood cells (hRBCs); assay: Haemoglobin release from human red blood cells; format: cell-based; conditions: red cells of human
# Outline: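 Washed fresh human RBCs at 1% (v/v) in PBS were incubated with 2-fold serial peptide dilutions (DMSO vehicle) for 1 h at 37 °C, then centrifuged. Haemoglobin in the supernatant was read at 415 nm. % hemolysis was taken relative to DMSO blank and 1% Triton X-100 complete lysis.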
# [3] = Proton leakage from EYPC vesicles (HPTS); format: biochemical; conditions: peptide premixed with lipids; in words
# Protocol: To confirm that lack of binding causes loss of membrane activity, we decided to premix the peptides and lipids in organic solvent and then dried out the mixture before hydration. Then, the peptides would be trapped into the bound form upon vesicle formation. The peptides distribution was determined by monitoring Trp fluorescence and the channel activity was determined by monitoring the proton leakage from LUVs using a pH sensitive fluorescence dye HPTS. Peptides 10, 12, 14K and 10, 12, 14 M gA were chosen to mix with neutral lipids EYPC.
# [4] = Peptide distribution in EYPC LUVs by Trp fluorescence; format: binding; conditions: peptide added to LUVs; in words
# Protocol: The peptides distribution was determined by monitoring Trp fluorescence and the channel activity was determined by monitoring the proton leakage from LUVs using a pH sensitive fluorescence dye HPTS. […]
# [5] = Peptide binding onto membranes (Trp fluorescence); conditions: neutral POPC vesicles; in words
# [6] = K+ leakage from liposomes; format: biochemical; conditions: FIG. 4B; in words
# Protocol: A chloroform solution containing 76 mg of POPC (for POPC LUVs) or a chloroform/meol (1/1) containing 38 mg of POPC and 38.5 mg POPG sodium salt (for POPC/POPG LUVs, POPC:POPG=1:1) was dried under reduced pressure to form a thin film, which was then […] with 2 mL aqueous buffer: (1) 10 mM HEPES, 150 mM KCl, pH 7.0 for K+ leakage assay; (2) 10 mM TES, 100 mM sodium citrate, 50 mM TbCl3, pH 7.0 for Tb3+ leakage assay; (3) 10 mM HEPES, 150 mM NaCl, pH 7.0 for peptide binding assay. After 20 cycles of freezing and thawing, the liposome suspension was extruded 21 times through a 100 nm polycarbonate membrane (LIPOSOFAST Mini Extrusion system, Avanti Polar Lipids; Whatman Nuclepore Track-Etch Membrane) at RT. Free K+ or Tb3+ were removed by gel filtration (ÄKTA FPLC with HIPREP™ 16/60 Sephacryl TM-S-500HR column) using Buffer A for (1) and (3) or Buffer B for (2) as the eluents. The lipid concentration was determined by the Stewart assay and the size of liposome was confirmed by Dynamic Light Scattering (DLS, DYNAPRO NANOSTAR, Wyatt, Santa Barbara, Calif.). After gel filtration the polydispersity of all liposome are below 20%.
# The K+ leakage from liposomes was determined by a potassium ion selective electrode (K-ISE, Cole-Parmer, Vernon Hills, Ill.). […] Three minutes after each peptide addition, the K+ concentration was measured and reported as the K-ISE potential. […]
# [7] = Trp absorbance @ 280 nm; 10 mM PBS, pH 7.0, 1% DMSO; values taken from ref; cited from earlier work
# [8] = Tb3+ leakage from liposomes, lipid not specified; format: biochemical; conditions: at peptide concentrations causing complete K+ release; in words
# MCF-7 = assay: MTT toxicity assay; format: cell-based, human
# Protocol: (§1) Toxicity of gA-WT and gA-5 was tested against two human cancer cell lines, HeLa and MCF-7 (gifts from Professor Eranthie Weerapana at Boston College) by using the MTT assay as described in the protocol provided by Invitrogen.[5] HeLa cells (in DMEM high glucose media with 10% FBS, 1% Pen/Strep, 37° C., 5% CO2) and MCF-7 cells (in RPMI media with 10% FBS and 1% Pen/Strep, 37° C., 5% CO2) were grown to about 80% confluent before removed from the surface of a 20 cm petri-dish with […] with EDTA (3-5 mins, 37° C., 5% CO2). Cells were pelleted (3,500 rpm, 5 mins at 4° C.), and plated at 15,000 cells per well (100 μL per well), then incubated for 48 hrs before peptide addition.
# (§2) Stock solutions of gA in DMSO with varied concentrations were prepared so that for each peptide concentration the total volume of DMSO addition was kept constant at 1% (v/v). For each peptide concentration, samples were set up as four replicates. Control wells were loaded with 1 μL of DMSO. After overnight incubation, cells were washed once with PBS before being incubated for 4 hrs with 110 μL of 12 mM 3-(4,5-Dimethylthiazol-2-yl)-2,5-diphenyltetrazolium bromide (MTT) dissolved in RPMI media. The MTT assay was quenched with 100 μL of 10% SDS in 0.01 M HCl and allowed to incubate overnight before absorbance at 570 nm was recorded. Wells were averaged and standard deviations determined for each peptide concentration. Data were normalized to the DMSO control to give % cell survival (see FIG. 3).
# HeLa = assay: MTT toxicity assay; format: cell-based, human
# Protocol: as §1, §2
# [9] = test system: Bacillus subtilis (ATCC 663)
# [10] = test system: Staphylococcus aureus (ATCC 6538)
structure (smiles),measurement,setting,value
"CC(C)C[C@@H](NC(=O)[C@H](C)NC(=O)CNC(=O)[C@@H](NC=O)C(C)C)C(=O)N[C@@H](C)C(=O)N[C@@H](C(=O)N[C@H](C(=O)N[C@@H](C(=O)N[C@@H](Cc1c[nH]c2ccccc12)C(=O)N[C@H](CCCCN)C(=O)N[C@@H](Cc1c[nH]c2ccccc12)C(=O)N[C@H](CCCCN)C(=O)N[C@@H](Cc1c[nH]c2ccccc12)C(=O)N[C@H](CCCCN)C(=O)N[C@@H](Cc1c[nH]c2ccccc12)C(=O)NCCO)C(C)C)C(C)C)C(C)C (racemic) [gA-5, formyl-V-G-A-dL-A-dV-V-dV-W-dK-W-dK-W-dK-W-NHCH2CH2OH]",MICs S. Pyogenes,[1]; ATCC 19615,0.62 µM
same,MIC relative to wild-type Gramicidin A,[1]; S. Pyogenes,equivalent to or ˜2-fold higher
same,antibacterial activity,"[1]; S. pyogenes, in words",highly potent
same,HC50 (50% haemoglobin leakage relative to 1% TritonX-100),[2],>100 µM
same,proton leakage from EYPC LUVs,[3],caused proton leakage
same,binding to EYPC LUVs,[4],neither peptides bound to EYPC LUVs upon addition
same,apparent dissociation constant (Kd) / binding,[5],no detectable binding
same,K+ leakage from negatively charged liposomes,[6],lack of K+ leakage
same,"Sat. Conc, Lys series",[7],72 µM
same,Tb3+ leakage from LUVs,[8],essentially no Tb3+ leakage; also recorded: little to no difference
same,"toxicity, cell survival (MTT)",MCF-7,essentially unaffected
same,"toxicity, cell survival (MTT)",HeLa,essentially unaffected
same,MICs B. Subtilius,[9]; ATCC 663,5 µM
same,MIC relative to wild-type Gramicidin A,[9]; B. subtilis,equivalent to or ˜2-fold higher
same,antibacterial activity,"[9]; B. subtilis, in words",highly potent
same,MICs S. Aureus,[10]; ATCC 6538,> 10 µM
same,MIC relative to wild-type Gramicidin A,[10]; S. Aureus,much higher MIC
same,MICs S. Aureus,"[10]; Table 2, standard micro-dilution",>10 ^[e] μM
